Data as given in US20250027930A1, “SMALL MOLECULES FOR REPROGRAMING ANTI-TUMOR IMMUNITY OF T CELLS” (THE SCRIPPS RESEARCH INSTITUTE, priority 2021, published 2025).

Columns and labels:
CD8+ OT-I T cells = test: OT-I splenocyte culture with K-Ras(G12C) inhibitors; format: cell-based, mouse; conditions: 5 μM
OT-I splenocytes = test: OT-I splenocyte culture with KRAS (G12C) inhibitors 9/12 and analogues; format: cell-based, mouse; conditions: added D0 at 5 uM or D3 at 5 uM or 10 uM, kept till day 7
Experimental: We performed additional studies to examine the observed activities of KRAS (G12C) inhibitors in modulating T cell properties. First, OT-I splenocytes were activated with OVA257-264 peptide (500 nM) for 3 days in the presence of 60 IU/mL IL-2 and cultured for another 7 days. Inhibitor 9 (i9) or inhibitor 12 (i12) was added on Day0 (D0) upon activation at 5 uM and the concentration was kept till day 7 or added on Day3 (D3) after activation at 5 uM or 10 uM and the concentration was kept till day 7 for analysis.
Other than inhibitors 9 and 12, we also tested activities of two analogues of these KRAS (G12C) inhibitors. The analogues, Z7 and Z6, are derived from Inhibitor 9 and Inhibitor 12, respectively. They have an alkynyl group for click reaction which is used for ABPP analysis to find the targets of the inhibitors (FIG. 18A). In the studies, OT-I splenocytes were activated with OVA257-264 peptide (500 nM) for 3 days in the presence of 60 IU/mL IL-2 and cultured for another 7 days. 5 uM […], i9, z6 or z7 were added on Day0 (DO) upon activation.
As noted above, Inhibitor 9 and Inhibitor 12 have a cysteine-reactive group ([…] and acrylamide) that allows covalent binding of i9 and i12 to a cysteine residue in proteins. We further tested two analogue compounds, ZT-1 and ZT-2, that are not capable of forming the covalent binding. […] Cell number was recorded on day 5 and day 7. […]

hPBMCs [1] = test: Donor hPBMC expansion with irradiated feeder cells; format: cell-based, human; conditions: 2 μM
Experimental: (FIG. 9A) Donor hPBMCs were activated twice with irradiated (50 Gy) feeder cell mixture, initially on day 0 and then similarly on day 6. […] (FIG. 9C) Gated CD8^+ hPBMCs were analyzed for the expression of inhibitory receptors Tim-3 and PD-1 (terminally exhausted phenotype downregulation not statistically significant in either donor). (FIG. 9D) the expression of Tim-3 and TCF-1. (FIG. 9E) the expression of CCR7 and CD45RA.
Donor hPBMC cells were co-cultured 1:1 with an irradiated (50 Gy) mixture of hPBMCs from five different donors (henceforth, feeder cells). Irradiation arrests cell division, yet these feeder cells retain the ability to provide extracellular secretions to help donor cells proliferate. Cytokine signaling and HLA mismatch provides for robust donor hPBMC activation. Donor hPBMCs were activated twice with the irradiated feeder cell mixture, initially on day 0 and then similarly on day 6 (FIG. 9A). Beginning on day 0, donor hPBMCs were continuously cultured with 300 IU/mL IL2 and with or without K-Ras(G12C) inhibitor 12 (2 μM) (FIG. 9A).

M8 tetramer+ CD8+ TILs = test: Rapid expansion of M8 tetramer+ CD8+ TILs from MC38 tumors; format: cell-based, mouse; conditions: 5 μM
Text: We further observed that K-Ras(G12C) inhibitor 12 prevents the generation of terminally exhausted (PD-1^+, Tim-3^+) antigen-specific CD8^+ tumor infiltrating lymphocytes (TILs) and facilitates production of progenitor-like (Tpex, Tim-3^−, TCF-1^+) antigen-specific CD8^+ TILs during in vitro expansion. Specifically, to elucidate the ability of K-Ras(G12C) inhibitor 12 to modulate properties of tumor infiltrating lymphocytes (TILs) in vitro, we utilized an MC38 murine colonic cancer model. C57BL/6J (B6) mice were inoculated with MC38 cells. Tumors were grown for 14 days and then harvested. Antigen specific (H-2K^b-restricted MuLV p15E604-611-specific, henceforth M8 tetramer^+) CD8^+ TILs were isolated. M8 tetramer^+ CD8^+ TILs were subjected to rapid expansion. On day 1 of rapid expansion, TILs were added 1:100 with irradiated BALB/c splenocytes and incubated with 1500 IU/mL IL2 for proliferation, […] anti-CD3 (mouse) antibody for activation, and with or without K-Ras(G12C) inhibitor 12 (5 μM).

hPBMCs [2] = test: Donor hPBMC expansion with irradiated feeder cells; format: cell-based, human; conditions: 2 μM; remark: listed apart in the source
anti-GD2 CAR-T cells = test: Anti-GD2 CAR-T cell expansion with Inhibitor 9/12, phenotype and cell number; conditions: for expression of inhibitory receptors (PD-1, LAG3, Tim-3 and CD39) of anti-GD2 CAR-T cells / progenitor features of anti-GD2 CAR-T cells: Inhibitor 9 at 2 or 3 uM, Inhibitor 12 at 1 or 2 uM, day 15
P14 cells = test: P14 splenocyte in vitro activation, re-stimulation and expansion; format: cell-based, mouse; conditions: 80 mM; for Fold of proliferation, Normalized to W/O: P14 cells
OT-1 cells = test: OT-I-Tcf7GFP splenocyte screen: proliferation and Tim3−TCF-1+ ratio; format: cell-based, mouse; conditions: Day7, 80 mM
Experimental: Cell number was recorded on day 3 and day 7. On day 7, cells were stained with anti-CD8a (PerCP-Cy5.5) and anti-Tim3 (BV421) antibodies for flow cytometry or plate reader analysis.
Because TCF1 expression positively correlates with T cell stemness, the greater signal of EGFP a T cell expresses, the less differentiated the T cell is. Furthermore, if the compound also facilitates T cells proliferation, there would be more T cells per well in comparison to the untreated control. Therefore, a compound that not only maintains TCF-1 expression but also facilitates T cell growth would produce the strongest green fluorescence intensity. […] GlcA stands for glucuronic acid.

P14 CD8+ T cells = format: in vivo, mouse
OVA-specific TILs = test: In vivo expansion of expanded OVA-specific TILs after LM-OVA challenge; parameters: species or system mouse; conditions: naïve mice; vs T cells expanded without added sugars
[3] = tested on: MC38 TSA-reactive CD8+ TILs; test: Rapid expansion of TSA-reactive CD8+ TILs from MC38 tumors; format: cell-based, mouse
Experimental: Sugars were added at the beginning or during the expansion of the TILs, and kept till the end of expansion. On expansion day 9, phenotypes of the expanded T cells were assessed, and the cells were used for adoptive transfer (FIG. 6E). For adoptive transfer, 0.5 million cells (B16-OVA or MC38) were inoculated subcutaneously on each mouse on day 0, Listeria monocytogenes-OVA (LM-OVA) infection 0.5 million CFU/mice on day 1, and blood analysis was recorded on day 7.

C=CC(=O)N1CCN(C(=O)CNc2cc(I)c(Cl)cc2O)CC1 [K-Ras(G12C) inhibitor 12]
cell expansion (CD8+ OT-I T cells; OT-I): does not compromise cell expansion
generation of progenitor-like T cells (CD8+ OT-I T cells; OT-I culture model): effectively promoted the generation of progenitor-like T cells
terminally exhausted (PD-1^+, Tim-3^+) CD8^+ OT-I T cells (CD8+ OT-I T cells; day 5, untreated 23.8%): about 0.46%
progenitor-like phenotype (Tim-3^−, TCF-1^+) CD8^+ OT-I T cells (CD8+ OT-I T cells; day 5, untreated 38.6%): 91.6%
expression of inhibitory receptors (Tim-3+PD-1) (OT-I splenocytes): decreased
terminally exhausted (PD-1^+, Tim-3^+) CD8^+ hPBMCs (hPBMCs [1]; day 13, donor 3, untreated 3.52%): 2.6%
terminally exhausted (PD-1^+, Tim-3^+) CD4^+ hPBMCs (hPBMCs [1]; day 13, donor 3, untreated 15.7%): 0.83%
progenitor-like phenotype (Tim-3^−, TCF-1^+) CD8^+ hPBMCs (hPBMCs [1]; day 13, donor 3, untreated 15.9%): 51.5%
terminally exhausted (PD-1^+, Tim-3^+) CD8^+ hPBMCs (hPBMCs [1]; day 13, donor 4, untreated 5.01%): 3.27%
progenitor-like phenotype (Tim-3^−, TCF-1^+) CD8^+ hPBMCs (hPBMCs [1]; day 13, donor 4, untreated 6.78%): 39.7%
CD8^+ terminally differentiated effector memory cells (TEMRA, CCR7^−, CD45RA^+) (hPBMCs [1]; donor 3 and donor 4): downregulated
stem-like memory CD8^+ T cells (TSCM, CCR7^+, CD45RA^+) (hPBMCs [1]; donor 3 and donor 4): produced less-differentiated stem-like memory CD8^+ T cells
mean cell expansion (hPBMCs [1]; hPBMCs from both donors): no statistically significant compromise
CD8+ cells displaying the terminally exhausted phenotype (PD-1^+ Tim-3^+) (M8 tetramer+ CD8+ TILs; day 8 post rapid expansion, untreated 79.4%): 29.2%
cell expansion (M8 tetramer+ CD8+ TILs; day 8 post-expansion, pre-expansion 0.1×10^6, untreated 1.18×10^6, n=1): 0.397×10^6 TILs
CD8^+ cells displaying the progenitor-like phenotype (Tim-3^−, TCF-1^+) (M8 tetramer+ CD8+ TILs; post-expansion, untreated 0.076%): 12.8%
TEMRA (donor 3) or TEM (donor 4) CD4^+ hPBMCs (hPBMCs [2]): downregulated
stem-like memory CD4^+ T cells (TSCM, CCR7^+, CD45RA^+) (hPBMCs [2]): upregulated
progenitor-like phenotype (Tim-3^−, TCF-1^+) CD4^+ hPBMCs (hPBMCs [2]; day 13, donor 3, untreated 33.3%): 78.4%
terminally exhausted (PD-1^+, Tim-3^+) CD4^+ hPBMCs (hPBMCs [2]; day 13, donor 4, untreated 14.7%): 7.9%
progenitor-like phenotype (Tim-3^−, TCF-1^+) CD4^+ hPBMCs (hPBMCs [2]; day 13, donor 4, untreated 53.3%): 78.7%
expression of inhibitory receptors (PD-1, LAG3, Tim-3 and CD39) of anti-GD2 CAR-T cells (anti-GD2 CAR-T cells): decreased the expression of inhibitory receptors
progenitor features of anti-GD2 CAR-T cells (anti-GD2 CAR-T cells): increased progenitor features

OC[C@H]1O[C@@](CO)(O[C@H]2O[C@H](CO)[C@@H](O)[C@H](O)[C@H]2O)[C@@H](O)[C@@H]1O [Sucrose, sucrose]
Fold of proliferation, Normalized to W/O (P14 cells; Day6): 1.80 fold
Tim3^−TCF-1^+ ratio of CD8^+ T cells (%) (P14 cells; Day6, w/o 55.0): 89.8%
Fold of proliferation, Normalized to W/O (P14 cells; Day9): 2.85 fold
Tim3^−TCF-1^+ ratio of CD8^+ T cells (%) (P14 cells; Day9, w/o 3.5): 48.6%
Tim3^−TCF-1^+ ratio of CD8^+ T cells (%) (OT-1 cells; w/o 2.6): 41.2%
activity at 80000 µM (OT-1 cells; Mus musculus, Splenocyte, 168 h, OT-1 cells, read-out: Proliferation fold, Normalized to W/O): 86%
percentages and total numbers of expanded virus-specific P14 CD8+ T cells in the blood (P14 CD8+ T cells; 7 dpi LCMV-Cl13, cells pre-treated in vitro, vs co-transferred untreated P14 cells): significantly higher
percentages and total numbers of expanded virus-specific P14 CD8+ T cells in the spleen and liver (P14 CD8+ T cells; 14 dpi LCMV-Cl13, cells treated in vitro, vs untreated): significantly higher
proliferation of transferred expanded cells after LM-OVA challenge (OVA-specific TILs): better proliferation
cell surface anti-CLA (Cutaneous Lymphocyte-associated Antigen) staining [3]: significant increase

K-Ras(G12C) Inhibitor 9
expression of inhibitory receptors (Tim-3+PD-1) (OT-I splenocytes): decreased
proliferation of CAR-T cells (anti-GD2 CAR-T cells; 2 or 3 uM): facilitated the proliferation
expression of inhibitory receptors (PD-1, LAG3, Tim-3 and CD39) of anti-GD2 CAR-T cells (anti-GD2 CAR-T cells): decreased the expression of inhibitory receptors
progenitor features of anti-GD2 CAR-T cells (anti-GD2 CAR-T cells): increased progenitor features
